The values that follow come from paper PMC3368197, “Noncytotoxic and Antitumour-Promoting Activities of Garcinia Acid Esters from Garcinia atroviridis Griff. ex T. Anders (Guttiferae)” (Evidence-based Complementary and Alternative Medicine : eCAM, 2012).

Structures are written as SMILES. Like-named read-outs stand apart in the source and are kept apart here. Where only a bound is given, the exact number is not on record here.

As a reminder, the IC50 is the concentration at which inhibition is half-maximal. The term LC50 denotes the concentration that kills 50% of the test population.

Data set [1] concerns Epstein-Barr virus early antigen (EBV-EA) activation. Put plainly: In vitro antitumour-promoting assay: inhibition of EBV early antigen activation in Raji cells. The format is cell-based. Conditions: for IC50: human gammaherpesvirus 4, Raji cells, 3 mM sodium n-butyrate + 50 nM PMA, 48 h. The protocol: The inhibition of Epstein-Barr virus (EBV) activation was used to evaluate in vitro antitumour-promoting activity. Raji cells were incubated for 48 h at 37°C under 5% CO2 in 1 mL (~5 × 10^5 cells) of RPMI-1640 medium containing 3 mM sodium n-butyrate ([…] Tesque, Japan), 50 nM phorbol 12-myristate 13-acetate (PMA) (Sigma, USA) and the test compounds (600 μM) per well of a 24-well plate. Conventional indirect immunofluorescence staining of early antigen (EA) with high-titre EA-positive serum (EA titre 1 : 1,280) obtained from nasopharyngeal carcinoma (NPC) patients (1 : 20 serum dilution) followed by a 1 : 30 dilution of fluorescein-isothiocyanate-(FITC-)labeled IgG (Sigma, USA) was used to measure EBV activation. The ratio of EA-induced cells to the control experiments only with sodium n-butyrate and PMA was around 50%. The test compounds showing antitumour-promoting activity were serially diluted (2-fold) to determine the IC50 values.

For data set [2], the system named is Brine shrimp (Artemia saline Leach). In words: Brine shrimp lethality/toxicity assay. The format is in vivo. The note with it: brine shrimp nauplii, preliminary test concentration 300 μM. The protocol: Brine shrimp (Artemia saline Leach) eggs (Gold Eagle, USA) were placed in a hatching tank containing sea water for 48 h. Each compound (6 μmol) was dissolved in 0.2 mL methylene chloride:methanol (1 : 1) to prepare a stock solution of 30 mM. From the stock solutions, 50 μL was transferred to different vials and allowed to evaporate. After evaporation, 5 mL of brine was added to each vial in triplicate to prepare a preliminary test concentration corresponding to 300 μM. Ten shrimp nauplii were added to each vial (30 shrimps per concentration). The number of survivors out of 30 shrimps per concentration was recorded.

The nature of data set [3]: DPPH radical scavenging method. Conditions: 0.3 mM, 30 min. The protocol:
The methanol solution of 2,2-diphenyl-1-picrylhydrazyl hydrate (DPPH) (Aldrich Chem. Co., USA) radicals (1 mL, 0.3 mM) was added to each sample (1 mM, 0.5 mL) and was shaken vigorously. The absorbance of each sample was measured at 517 nm after allowing it to stand for 30 min. Each sample (final concentration, 0.3 mM) was assayed in triplicate and averaged. Standard antioxidants, that is, butylated hydroxytoluene (BHT) and ascorbic acid, were used as positive controls.
In general terms: The DPPH test is a chemical assay of radical scavenging.

Data set [4] relates to CEM-SS (human T-lymphoblastic leukemia) cells. Put plainly: MTT cytotoxicity assay. The format is cell-based. The note with it: 72 h. The protocol:
The CEM-SS (human T-lymphoblastic leukemia) cell line was obtained from the National Cancer Institute, USA, and the Raji (human B-lymphoblastoid) cell line was provided by Prof. K. Koshimizu, Kinki University, Japan. Cells were cultured in RPMI-1640 (Sigma, USA) medium with 10% v/v foetal calf serum (Sera Lab, UK), 100 IU/mL penicillin (Sigma, USA) and 100 μg/mL streptomycin (Sigma, USA) as a complete growth medium (CGM). Cells were maintained in 25 cm^2 flask with 10 mL of CGM at 37°C with 5% CO2. Every three days the cells were subcultured by splitting the culture with fresh CGM at a ratio of 1 : 4 [10].
Cytotoxicity was determined using the MTT assay as reported by Ali et al.. Varying concentrations of the test compounds were prepared from the stock solutions by serial dilution in RPMI-1640 to give a volume of 100 μL in each well of a microtiter plate (96-well) as described before. Each well was filled with 100 μl of CEM-SS cell suspension in CGM at 1-2 × 10^5 cells/mL. Controls that contained only CEM-SS cells were included for each sample. The assay for each concentration of extract was performed in triplicate and the culture plates were kept at 37°C with 5% (v/v) CO2 for three days. After 72 h of incubation, 100 μL of medium was removed from each well. […] Absorbance values at 550 nm were measured with a microplate reader (Bio Tek EL 340, USA) after background subtraction at 630 nm. […]
Background: Formazan colour is commonly taken as a measure of viable cells.

Data set [5] relates to Epstein-Barr virus early antigen (EBV-EA) activation. The arrangement: method as in PMID 9247600, PMID 22140296. The note with it: known antitumour promoter; read-out: IC50, inhibition of EBV activation; cited from earlier work.

Turning to `CCCCOC(=O)CC1(O)C(=O)OC1C(=O)OCCCC` (stereo not shown) [Compound 1, 2-(butoxycarbonylmethyl)-3-butoxycarbonyl-2-hydroxy-3-propanolide], the IC50 in data set [1] is 70 µM. The “fold higher antitumour-promoting activity than compound 2” value in data set [1] (ratio of EBV-EA IC50 values) came to 8 fold. Also, in data set [2], the LC50 was over 300 µM. Besides, the “Radical scavenging (%), DPPH assay” value in data set [3] was 3.4%. The CD50 in data set [4] is over 100 µM.
Turning to `CCCCOC(=O)CC(O)(C(=O)OC)C(O)C(=O)OCCCC` (stereo not shown) [Compound 2, 1′,1′′-dibutyl methyl hydroxycitrate], in data set [1], the half-inhibitory concentration (IC50) is 560 µM. In addition, in data set [2], the LC50 was over 300 µM. In data set [3], the “Radical scavenging (%), DPPH assay” value stood at 5.5%. Further, the CD50 in data set [4] was over 100 µM.
`O=c1c(-c2ccc(O)cc2)coc2cc(O)cc(O)c12` [genistein]: the IC50 in data set [5] is about 20 µM.
